According to US12642791B2, “Inhibitors of lysyl oxidases” (UNIVERSITY OF SOUTH CAROLINA, priority 2021, dated 2026):

How the values were obtained:
TM01278 PDX organoids = experiment: PDX-derived TNBC organoids, combination with doxorubicin; type: cell-based, human; conditions: combination with doxorubicin (50 nM) vs single agents, 9 days
Procedure: FIG. 36. Combination of 6403 and 6415 with doxorubicin reduced the growth of the TNBC organoids. A. Representative images of TM01278 PDX organoids at day 0 and day 9 after treatment with doxorubicin (50 nM) and 6403 and 6415 treatments, alone or in combination. B. Quantification of organoid diameter and viability upon combination therapy for 9 days.
TNBC organoids were established from a fresh surgical tissue by cutting the tumor into small pieces and incubating in collagenase A solution with ROCK inhibitor on a shaker at 37° C. for 30 minutes. The collagenase activity was inhibited by adding FBS, and pipetting was done to ensure the formation of almost a single cell solution. After several washes with PBS, the cell pellet was dissolved in matrigel. Breast organoid media containing ROCK and GSK inhibitors was added after the Matrigel solidified. See, Sachs, N. et al. A Living Biobank of Breast Cancer Organoids Captures Disease Heterogeneity. Cell 172, 373-386 e310, doi:10.1016/j.cell.2017.11.010 (2018). For drug testing studies, organoids were disrupted to single cells by digesting at 37° C. for 30 mins with TrypLE (A1217701, Gibco, NY, USA) in the presence of 10 μM Rock inhibitor (s1049, Selleckchem, TX, USA). Organoids were plated into wells of 96 well plate (20.000 cells/well) on a collagen-coated surface with media containing 2% Matrigel (356252, Corning, NY, USA). Drugs were added 72 hours after plating. Cells were grown in the presence of drug or vehicle for 9 days, and photos were taken from each well to show the organoid size. Organoid viability was measured by using 3D Cell Titer Glo (Promega, USA) kit.

HUVEC = experiment: Viability assay in normal cells; type: cell-based; conditions: human endothelial cell line
Excerpt: (§1) FIG. 32. 6232 derivatives, 6403 and 6415, show no cytotoxicity in normal cells. Viability assay in normal breast cell line, MCF12A, human foreskin fibroblast cell line, HFF and human endothelial cell line, HUVEC treated with 6403 or 6415.

HFF = experiment: Viability assay in normal cells; type: cell-based; conditions: human foreskin fibroblast cell line
Excerpt: as §1

recombinant LOX = target: T1, recombinant LOX (Homo sapiens, UniProt P28300); experiment: Lysyl oxidase activity assay with recombinant LOX protein; type: biochemical; conditions: for inhibition of recombinant LOX: 10 μM compound; for selectivity LOX versus LOXL2 / LOX family: recombinant proteins
T1 construct: purchased Novus, USA
T1 sequence (P28300 169-417): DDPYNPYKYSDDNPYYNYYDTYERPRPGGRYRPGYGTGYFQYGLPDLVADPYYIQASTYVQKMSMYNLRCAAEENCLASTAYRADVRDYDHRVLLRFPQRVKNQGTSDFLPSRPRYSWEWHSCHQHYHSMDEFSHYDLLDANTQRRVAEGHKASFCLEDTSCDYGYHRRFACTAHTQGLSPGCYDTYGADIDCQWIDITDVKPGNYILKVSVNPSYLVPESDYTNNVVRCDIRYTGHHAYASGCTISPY
Procedure: For in vitro lysyl oxidase activity (for recombinant proteins), Lysyl Oxidase Activity kit (Biovision, USA) was used according to manufacturer's instructions. Briefly, 1 μg of LOX (Novus, USA), 0.2 μg of LOXL1 (Abcam, USA) and 0.1 μg of LOXL2 (Abcam, USA) were incubated with the reagent mix in the presence of inhibitors or vehicle. Lysyl oxidase activity of the wells was measured in multimode reader (every 30 sec, total 2.5 hours) in […] mode.

HFF cells = experiment: Fibrosis assay (TGF-beta induced, alpha-SMA and fibronectin staining); type: cell-based, human; conditions: 10 uM compound, 1 hour pretreatment, TGF-β 48 hours
Procedure: FIG. 40. […] 24 hours serum-starved HFF cells were pretreated with inhibitors 1 hours. Then, fibrosis was induced by […] of TGF-β for 48 hours in HFF cells. ALK5 (10 μM) inhibitor is used as a negative control. LOX inhibitors 6232, 6403 and 6415 were used at 10 uM concentration. HFF cells were stained with alpha-SMA and fibronectin primary antibodies. Nucleus of the cells was labeled with DAPI.
Human foreskin fibroblasts (HFF), see Li, M. et al. Icaritin inhibits skin fibrosis through regulating AMPK and Wnt/β-catenin signaling. Cell Biochemistry and Biophysics 79, 231-238 (2021), cells were seeded into μ-Slide 8-well glass bottom chambers (Ibidi, Germany). Next day, media of the cells were replaced with 0.5% FBS contain media and incubated with 24 hours. Then, cells were pretreated either with ALK5 inhibitor (Sellekchem, USA) or LOX inhibitors for 1 hour and cells were incubated with 10 ng/ml of TGF-beta (R&D Biosystems, USA) for 48 hours. Staining of the markers followed the same procedure described in the Immunofluorescence section above.

[1] = test system: cellular LOX activity, Mia-Paca-2; experiment: Cell-based LOX activity in pancreatic cancer cell line; set-up: species or system human
Procedure: (§2) FIG. 39. Inhibition of cellular LOX activity in pancreatic and kidney cancer cell lines. Inhibition of cellular LOX activity upon the treatment with BAPN, 6232, 6403 and 6415 in kidney cell line Caki-1 (A) and pancreatic cancer cell lines Mia-Paca-2 (B) and PANC1 (C).
(§3) For cell-based lysyl oxidase activity, fluorometric Lysly Oxidase Activity Assay Kit (Abcam, USA) was used according to manufacturer's instructions. Briefly, after the treatment, 50 μl of supernatant from each well was incubated with reagent mix and fluorescence measured in multimode-reader at Ex/Em=540/590 nm wavelength.

[2] = test system: cellular LOX activity, PANC1; experiment: as above; set-up: species or system human
Procedure: as §2, §3

[3] = test system: cellular LOX activity, Caki-1; experiment: Cell-based LOX activity in kidney cancer cell line; set-up: species or system human
Procedure: as §2, §3

[4] = test system: ACHN kidney cancer cell line; experiment: Growth inhibition in 3D collagen:matrigel culture (3D Cell Titer Glo); type: cell-based, human; conditions: collagen:matrigel (1:1), uM range
Procedure: (§4) FIG. 38. Dose dependent inhibition of cellular LOX activity and growth inhibition in 3D upon treatment with 6232 and its analogs, 6403 and 6415.in ACHN cancer cell line. Inhibition of cell-based LOX activity in ACHN (A) and growth inhibition in collagen:matrigel (1:1) culture (B) cancer cell lines upon treatment with LOX inhibitors 6232, 6403 and 6415 (uM range). BAPN is used as a positive control (mM range) in 3D cell viability assay. Growth inhibition was measured by using 3D Cell Titer Glo kit.
Collagen solution was prepared at a concentration of 0.5-1 mg/ml from the rat tail collagen I (Corning, USA) with a neutralization step including the addition of 1N NaOH solution. Cells were trypsinazed and resuspended in collagen:matrigel mix (1:1). 8×10^3 cells were seeded into 96-well or μ-Slide 8-well glass bottom chambers. After 1 hour of incubation at room temperature, media was added on top of the solidified collagen:matrigel mix. Drug treatments were done 12 hours after cell seeding.

[5] = test system: cellular lysyl oxidase activity, ACHN; experiment: Cell-based LOX activity in kidney cancer cell line; set-up: species or system human; conditions: uM range
Procedure: as §4, §3

| Structure (SMILES) | organoid size (TM01278 PDX organoids) | organoid viability (TM01278 PDX organoids) | cell viability (cytotoxicity in normal cells) (HUVEC) | cell viability (cytotoxicity in normal cells) (HFF) | inhibition of recombinant LOX (recombinant LOX) | inhibition of recombinant LOX activity (recombinant LOX; 5 and 10 uM) | selectivity LOX versus LOXL2 / LOX family (recombinant LOX) | selectivity LOX versus LOXL2 / LOX family (recombinant LOX; listed as 4-((2′-amino-4′-methyl-[4,5′-bithiazol]-2-yl)(methyl)amino)phenol) | TGF-β-induced fibrosis (alpha-SMA, fibronectin staining) (HFF cells) | cellular LOX activity [1] | cellular LOX activity [2] | cellular LOX activity [3] | cell viability in 3D culture [4] | cellular lysyl oxidase activity inhibition [5] |
| --- | --- | --- | --- | --- | --- | --- | --- | --- | --- | --- | --- | --- | --- | --- |
| Cc1nc(N)sc1-c1csc(N(C)c2ccc(O)cc2)n1 [compound 6415, 4-[[4-(2-amino-4-methyl-thiazol-5-yl)thiazol-2-yl]-methyl-amino]phenol] | significantly decreased organoid size | significantly decreased | no significant change in cell viability | no significant change in cell viability | inhibits both LOX and LOXL2 recombinant proteins | inhibited the activity of LOX and LOXL2 recombinant proteins | more like a LOX/LOXL2 inhibitor | non-selective inhibitor of the LOX family of enzymes | inhibited the TGF-β-induced fibrosis | inhibited cellular LOX activity | inhibited cellular LOX activity | inhibited cellular LOX activity | decrease in cell viability in 3D culture | dose dependent cellular lysyl oxidase activity inhibition |
| Cc1nc(N)sc1-c1csc(Nc2ccc([N+](=O)[O-])cc2)n1 [compound 6232, 4-methyl-5-[2-(4-nitroanilino)thiazol-4-yl]thiazol-2-amine] | – | – | – | – | strongly inhibit | – | – | – | inhibited the TGF-β-induced fibrosis | inhibited cellular LOX activity | inhibited cellular LOX activity | inhibited cellular LOX activity | decrease in cell viability in 3D culture | dose dependent cellular lysyl oxidase activity inhibition |
| CC(=O)Nc1ccc(Nc2nc(-c3sc(N)nc3C)cs2)cc1 [compound 6403, N-[4-[[4-(2-amino-4-methyl-thiazol-5-yl)thiazol-2-yl]amino]phenyl]acetamide] | significantly decreased organoid size | significantly decreased | no significant change in cell viability | no significant change in cell viability | inhibits LOX recombinant protein | – | more potent and selective inhibitor against LOX compared to LOXL2 | – | inhibited the TGF-β-induced fibrosis | inhibited cellular LOX activity | inhibited cellular LOX activity | inhibited cellular LOX activity | decrease in cell viability in 3D culture | dose dependent cellular lysyl oxidase activity inhibition |
